According to publication PMC7689096, “Cyclizing Painkillers: Development of Backbone-Cyclic TAPS Analogs” (Frontiers in Chemistry, 2020):
Where “and” joins values, the source holds several entries; their conditions need not be identical. Equal entries are not always repeated.

Assays:
[1] = biological target: T1, human recombinant μ (MOP, OPRM1) receptor (Homo sapiens, UniProt P35372); experiment: MOP opioid receptor functional agonism in CHO cells expressing human recombinant μ receptors; type: cell-based; conditions: At 10^−6 M, percent of control specific agonist response, values lower than 25% not significant
T1 construct: host or cells: CHO cells
Description: Peptides were tested for μ (MOP, OPRM1) and δ (DOP, OPRD2) opioid receptor activation functional agonism and antagonism using CHO cells expressing human recombinant μ receptors and NG-10815 cells which express significant endogenous levels of δ opioid receptors. The cultures were incubated for 10 min at 37°C followed by impedance measurements of CHO cells and cAMP was assayed by the HTRF method using NG-10815 cells, according to CEREP standard assay protocols. The respective reference, non-peptide small molecules were tested concurrently with the TAPS analogs. The agonist compounds were: DPDPE (selective agonist of DOP receptor) and DAMGO (high MOP receptor specificity) and the antagonist compounds were: Naltrindole (selective DOP receptor antagonist) and CTOP (MOP receptor antagonist). […] The results are expressed as a percentage of respective control-specific response. […] These findings indicate that TAPS cyclic peptides are MOP selective full agonists. […] The cyclic TAPS peptide had lower activity than the linear parent TAPS peptide (90 ± 5%) – a finding that can be attributed to their restricted conformation relative to the flexible linear peptide conformation.
Evaluation of the Agonist Activity of Compounds at the Human μ Receptor in Transfected CHO Cells, Determined by Measuring Their Effects on cAMP modulation Using the HTRF Detection Method
Thereafter, the adenylyl cyclase activator NKH 477 is added at a final concentration of […]. Following 10 min incubation at 37°C, the cells are lysed and the fluorescence acceptor (D2-labeled cAMP) and fluorescence donor (anti-cAMP antibody labeled with europium cryptate) are added. After 60 min at room temperature, the fluorescence transfer is measured at lex = 337 nm and lem = 620 and 665 nm using a microplate reader (Rubystar, BMG). The cAMP concentration is determined by dividing the signal measured at 665 nm by that measured at 620 nm (ratio). The results are expressed as a percent of the control response to 1 μM DAMGO. The standard reference agonist is DAMGO, which is tested in each experiment at several concentrations to generate a concentration-response curve from which its EC50 value is calculated.
The respective reference, non-peptide small molecules were tested concurrently with the TAPS analogs; Agonist compounds DPDPE ([D-Pen2,D-Pen5]enkephalin), selective agonist of DOP receptor at 2 × 10^−9 M and DAMGO ([D-Ala2, N-MePhe4, Gly-ol] enkephalin), high MOP specificity at 2.5 × 10^−9 M; Antagonist compounds: naltrindole 7-(cyclopropylmethyl)-6,7-dehydro-4,5α-epoxy-3,14-dihydroxy-6,7-2′,3′-indolomorphinan hydrochloride, selective DOP antagonist, 5 × 10^−10 M and CTOP (D-Phe-Cys-Tyr-D-Trp-Orn-Thr-Pen-Thr-NH2), MOP antagonist at 3.4 × 10^−7 M. Depending on the assay volume and solvent tolerance, the stock solutions were diluted to [100×], [333×] or [1,000×] in 100% DMEM solvent, then either added directly or further diluted to [10×] or [5×] in H2O or Hank's balanced salt solution (HBSS) before addition to the assay well (final solvent concentration kept constant). The cultures were incubated for 10 min at 37°C followed by impedance measurements using cellular dielectric spectroscopy of CHO cells and cAMP was assayed by homogeneous time resolved fluorescence (HTRF) method using NG-10815 cells, according to CEREP standard assay protocols (https://euroscreenfast.com/assays/opioid-orl1-camp-fast-0360c; https://euroscreenfast.com/assays/opioid-op1-delta-camp-fast-0379c). The results (mean of three experiments) are expressed as a percent of control specific agonist response [(measured TAPS specific response/control specific agonist response) × 100] and as a percent inhibition of control specific agonist response [100 – (measured TAPS specific response/control specific agonist response) × 100] obtained in the presence of the TAPS compounds. […]

[2] = Caco-2 permeability assay
mice = experiment: Mouse open field test (locomotor adverse effect)
Description: In the mouse open field test (OF test), the distance and speed the animal moves over a 5-min time period is recorded, giving an indication as to whether a medication administered affected its locomotor activity. TAPS c(2-6) (5 or 15 mg/kg) was administered via IP administration and compared to morphine (5 mg/kg) and vehicle (PBS).
Male ICR mice (Harlan, Israel) 7 weeks of age (25–27) were used for all pharmacodynamic experiments after 5-day acclimation to laboratory conditions. Animals were allowed free access to food (standard commercial, sterile rodent diet) and water throughout the experiments and kept in automatically controlled environmental conditions for temperature and humidity levels in a 12-h dark-light cycle.
Animals were placed in the OF apparatus for a period of 5 min. The apparatus utilizes computerized monitoring which measures the speed and distance the animal walks during the measurement period. […] Baseline measurements were taken 1 day before initiation of the experiments and again at 0.5, 1.5, 3, and 5 h post injection.

T1 sequence (P35372 whole entry): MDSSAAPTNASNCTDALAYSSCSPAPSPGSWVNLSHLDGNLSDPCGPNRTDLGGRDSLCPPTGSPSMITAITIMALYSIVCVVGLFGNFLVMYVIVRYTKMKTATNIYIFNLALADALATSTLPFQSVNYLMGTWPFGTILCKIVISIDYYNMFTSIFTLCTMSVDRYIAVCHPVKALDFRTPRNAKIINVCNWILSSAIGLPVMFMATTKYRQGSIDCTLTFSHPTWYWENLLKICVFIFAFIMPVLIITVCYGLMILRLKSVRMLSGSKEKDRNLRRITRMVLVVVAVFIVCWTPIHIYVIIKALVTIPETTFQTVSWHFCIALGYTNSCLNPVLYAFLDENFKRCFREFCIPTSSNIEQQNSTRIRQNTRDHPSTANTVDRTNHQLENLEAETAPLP

## N=C(N)NCCC[C@@H]1C(=O)N[C@@H](Cc2ccccc2)C(=O)N(CC(N)=O)CCNC(=O)NCCCCCCN1C(=O)[C@@H](N)Cc1ccc(O)cc1 [TAPS c(2-6)]
[1]
  MOP agonist (%): 48 ± 3% and 48^** %
[2]
  Papp: 11 ×10⁻⁶ cm/s
  Papp A→B: 0.038 ×10⁻⁶ cm/s
  Papp B→A: 0.05 ×10⁻⁶ cm/s
mice; 5 mg/kg IP
  locomotor effect (distance and speed of movement over 5 min): no locomotor effect
mice; 15 mg/kg IP
  locomotor effect (distance and speed of movement over 5 min): no locomotor effect
